Laboratory results from PMC4052943 (BioMed Research International, 2014).
Where “and” joins values, the source holds several entries; their conditions need not be identical. Identical values can stand only once. Like-named read-outs stand apart in the source and are kept apart here.

Columns and labels:
[1] = test system: Salmonella typhimurium TA97a; settings: TA 97a, no S9
Procedure: (§1) In the preincubation experiment, test compounds and mutagen, each having a volume of 0.1 mL of varying concentrations, were preincubated at 37°C for 30 min and then 0.1 mL of 1 × 10^7 CFU/mL density of the bacterial culture was added, followed by the addition of 2.5 mL of top agar at 45°C (containing 0.5% NaCl and 0.6% agar) supplemented with 0.5 mM histidine-biotin. […] The combined solutions were vortexed and poured onto minimal glucose plates (40% glucose solution and Vogel Bonner medium). The plates were incubated at 37°C for 48 h and the numbers of histidine-independent revertants colonies were scored.
(§2) Survival of the bacteria was routinely monitored for each experiment. Parallel controls were run with compounds alone at all concentrations to test the possible toxicity. The concentrations of the test samples for investigating the antimutagenicity were 50, 100, 200, and 500 μM. […] All the test samples and mutagens were dissolved in DMSO (final conc., 0.01%). […] Plates were set up in triplicate for each concentration and the entire experiment was repeated three times. Inhibition of mutagenicity was expressed as percentage decrease of reverse mutation and calculated as (1) Percent inhibition=[(a−b)/(a−c)]×100, where a = number of histidine revertants induced by mutagen, b = number of histidine revertants induced by mutagen in the presence of test compound, and c = number of revertants induced in negative control.

[2] = test system: Salmonella typhimurium TA98; settings: TA 98, no S9
Procedure: as §1, §2

[3] = test system: Salmonella typhimurium TA100; settings: TA 100, no S9
Procedure: as §1, §2

[4] = test system: Salmonella typhimurium TA102; settings: TA 102, no S9
Procedure: as §1, §2

[5] = positive control MMS 1.5 μg (Table 8)

SMILES	Number of His+ revertants colonies/plate ([1]; positive control MMS 1.0 μg)	Number of His+ revertants colonies/plate [1, 5] [colonies/plate]	Number of His+ revertants colonies/plate ([2]; positive control MMS 1.0 μg) [colonies/plate]	Number of His+ revertants colonies/plate [2, 5] [colonies/plate]	Number of His+ revertants colonies/plate ([3]; positive control MMS 1.0 μg) [colonies/plate]	Number of His+ revertants colonies/plate [3, 5] [colonies/plate]	Number of His+ revertants colonies/plate ([4]; positive control MMS 1.0 μg) [colonies/plate]	Number of His+ revertants colonies/plate [4, 5] [colonies/plate]	Number of His+ revertants colonies/plate ([1]; positive control NaN3 1.5 μg) [colonies/plate]	Number of His+ revertants colonies/plate ([2]; positive control NaN3 1.5 μg) [colonies/plate]	Number of His+ revertants colonies/plate ([3]; positive control NaN3 1.5 μg) [colonies/plate]	Number of His+ revertants colonies/plate ([4]; positive control NaN3 1.5 μg)
COS(C)(=O)=O [MMS, Methyl methanesulfonate, reference compound]	449 colonies/plate and 449.7 ± 7.2 colonies/plate	449.7 ± 7.2	53.7 ± 1.5	53.7 ± 1.5	963.0 ± 11.4	963.0 ± 11.4	1237.0 ± 14.5	1237.0 ± 14.5	–	–	–	–
[N-]=[N+]=[N-].[Na+] [NaN3, Sodium azide, reference compound]	–	–	–	–	–	–	–	–	256.0 ± 11.7	52.3 ± 1.8	361.3 ± 11.0	370.0 ± 9.0 colonies/plate and 355.0 ± 15.5 colonies/plate
